# Experimental data: paper PMC10620772, “Design, synthesis, and biological evaluation of new pyrimidine-5-carbonitrile derivatives as novel anti-cancer, dual EGFR^WT/COX-2 inhibitors with docking studies” (RSC Advances, 2023)
# Assays:
# Assay in all cases: NCI60 antitumor screening
# Format in all cases: cell-based, human
# [1] = system: EKVX; details: five-dose
# [2] = system: DU-145
# [3] = system: COLO 205
# [4] = system: HCC-2998
# [5] = system: RXF 393
# [6] = system: SNB-75
# [7] = system: SK-MEL-2; details: Homo sapiens; 10 μM single dose; SK-MEL-2 (melanoma); read-out: growth inhibition percent (GI%)
# [8] = system: UO-31
# [9] = system: MCF7
# [10] = system: MALME-3M
# [11] = system: UACC-62
# [12] = system: SNB-19
# [13] = system: SK-OV-3
# [14] = system: ACHN
# [15] = system: SN12C
# [16] = system: HOP-62
# [17] = system: HOP-92
# [18] = system: RPMI-8226
# [19] = system: NCI-H522
structure (smiles),measurement,setting,value
"N#Cc1c(-c2ccc(F)cc2)nc(SCc2ccc(F)cc2)nc1N1CCNCC1 [4f, 2-((4-Fluorobenzyl)thio)-4-(4-fluorophenyl)-6-(piperazin-1-yl) pyrimidine-5-carbonitrile]",TGI,[1],26.40 µM
same,GI50,"[2]; Homo sapiens, DU-145, five-dose",16.8 µM
same,CC50,"[2]; Homo sapiens, DU-145, five-dose, read-out: LC50 (the source's name)",58.1 µM
same,inhibition at 10 µM,"[2]; Homo sapiens, DU-145, read-out: growth inhibition percent (GI%)",> 100%
same,TGI,[2]; five-dose,31.30 µM
same,IC50,"[3]; Homo sapiens, COLO 205",1.83 µM
same,GI50,"[3]; Homo sapiens, COLO 205, five-dose",1.83 µM
same,CC50,"[3]; Homo sapiens, COLO 205, five-dose, read-out: LC50 (the source's name)",6.34 µM
same,inhibition at 10 µM,"[3]; Homo sapiens, 10 μM single dose, COLO 205 (colon cancer), read-out: growth inhibition percent (GI%)",> 100%
same,TGI,[3]; five-dose,3.40 µM
same,GI50,"[4]; Homo sapiens, HCC 2998, five-dose",2.53 µM
same,CC50,"[4]; Homo sapiens, HCC 2998, five-dose, read-out: LC50 (the source's name)",6.27 µM
same,inhibition at 10 µM,"[4]; Homo sapiens, 10 μM single dose, HCC-2998 (colon cancer), read-out: growth inhibition percent (GI%)",> 100%
same,TGI,[4]; five-dose,3.22 µM
same,CC50,"[5]; Homo sapiens, RXF 393, five-dose, read-out: LC50 (the source's name)",51.5 µM
same,inhibition at 10 µM,"[5]; Homo sapiens, 10 μM single dose, RXF 393 (renal cancer), read-out: growth inhibition percent (GI%)",> 100%
same,TGI,[5]; five-dose,21.40 µM
same,GI%,[6]; 10 μM one-dose,80.66%
same,inhibition at 10 µM,"[6]; Homo sapiens, 10 μM single dose, SNB-75 (CNS cancer), read-out: growth inhibition percent (GI%)",80.7%
same,inhibition at 10 µM,[7],> 100%
same,GI%,[8]; 10 μM one-dose,91.74%
same,inhibition at 10 µM,"[8]; Homo sapiens, 10 μM single dose, UO-31 (renal cancer), read-out: growth inhibition percent (GI%)",91.7%
same,GI50,"[9]; Homo sapiens, MCF7, five-dose",6.43 µM
same,CC50,"[9]; Homo sapiens, MCF7, five-dose, read-out: LC50 (the source's name)",50.1 µM
same,inhibition at 10 µM,"[9]; Homo sapiens, 10 μM single dose, MCF7 (breast cancer), read-out: growth inhibition percent (GI%)",> 100%
same,TGI,[9]; five-dose,20.20 µM
same,GI50,"[10]; Homo sapiens, Malme-3M, five-dose",14.7 µM
same,CC50,"[10]; Homo sapiens, Malme-3M, five-dose, read-out: LC50 (the source's name)",54.8 µM
same,inhibition at 10 µM,"[10]; Homo sapiens, 10 μM single dose, MALME-3M (melanoma), read-out: growth inhibition percent (GI%)",> 100%
same,TGI,[10]; five-dose,28.40 µM
same,GI50,"[11]; Homo sapiens, UACC-62, five-dose",15.9 µM
same,CC50,"[11]; Homo sapiens, UACC-62, five-dose, read-out: LC50 (the source's name)",56.2 µM
same,inhibition at 10 µM,"[11]; Homo sapiens, 10 μM single dose, UACC-62 (melanoma), read-out: growth inhibition percent (GI%)",> 100%
same,TGI,[11]; five-dose,29.90 µM
same,GI50,"[12]; Homo sapiens, SNB-19, five-dose",14.9 µM
same,CC50,"[12]; Homo sapiens, SNB-19, five-dose, read-out: LC50 (the source's name)",58.1 µM
same,inhibition at 10 µM,"[12]; Homo sapiens, 10 μM single dose, SNB-19 (CNS cancer), read-out: growth inhibition percent (GI%)",50.4%
same,TGI,[12]; five-dose,29.40 µM
same,GI50,"[13]; Homo sapiens, SK-OV-3, five-dose",16 µM
same,CC50,"[13]; Homo sapiens, SK-OV-3, five-dose, read-out: LC50 (the source's name)",55.4 µM
same,inhibition at 10 µM,"[13]; Homo sapiens, 10 μM single dose, SK-OV-3 (ovarian cancer), read-out: growth inhibition percent (GI%)",43.3%
same,TGI,[13]; five-dose,29.80 µM
same,GI50,"[14]; Homo sapiens, ACHN, five-dose",15 µM
same,LC50,"[14]; Homo sapiens, ACHN, five-dose",54.5 µM
same,inhibition at 10 µM,"[14]; Homo sapiens, 10 μM single dose, ACHN (renal cancer), read-out: growth inhibition percent (GI%)",> 100%
same,TGI,[14]; five-dose,28.60 µM
same,GI50,"[15]; Homo sapiens, SN12C, five-dose",15.3 µM
same,CC50,"[15]; Homo sapiens, SN12C, five-dose, read-out: LC50 (the source's name)",55.2 µM
same,inhibition at 10 µM,"[15]; Homo sapiens, 10 μM single dose, SN12C (renal cancer), read-out: growth inhibition percent (GI%)",> 100%
same,TGI,[15]; five-dose,29.00 µM
same,GI50,"[16]; Homo sapiens, HOP-62, five-dose",17 µM
same,CC50,"[16]; Homo sapiens, HOP-62, five-dose, read-out: LC50 (the source's name)",65.8 µM
same,inhibition at 10 µM,"[16]; Homo sapiens, 10 μM single dose, HOP-62 (non-small cell lung cancer), read-out: growth inhibition percent (GI%)",> 100%
same,TGI,[16]; five-dose,33.40 µM
same,GI50,"[17]; Homo sapiens, HOP-92, five-dose",7.64 µM
same,CC50,"[17]; Homo sapiens, HOP-92, five-dose, read-out: LC50 (the source's name)",53.4 µM
same,inhibition at 10 µM,"[17]; Homo sapiens, 10 μM single dose, HOP-92 (non-small cell lung cancer), read-out: growth inhibition percent (GI%)",> 100%
same,TGI,[17]; five-dose,22.10 µM
same,GI50,"[18]; Homo sapiens, RPMI-8226, five-dose",6.75 µM
same,CC50,"[18]; Homo sapiens, RPMI-8226, five-dose, read-out: LC50 (the source's name)",74.4 µM
same,inhibition at 10 µM,"[18]; Homo sapiens, 10 μM single dose, RPMI-8226 (leukaemia), read-out: growth inhibition percent (GI%)",> 100%
same,TGI,[18]; five-dose,24.60 µM
same,GI50,"[19]; Homo sapiens, NCI-H522, five-dose",13.9 µM
same,CC50,"[19]; Homo sapiens, NCI-H522, five-dose, read-out: LC50 (the source's name)",64.3 µM
same,inhibition at 10 µM,"[19]; Homo sapiens, 10 μM single dose, NCI-H522 (non-small cell lung cancer), read-out: growth inhibition percent (GI%)",> 100%
same,TGI,[19]; five-dose,29.90 µM
